Data reported in patent publication US9155695B2, “Injectable ropinirole compositions and methods for making and using same” (Medtronic, Inc., priority 2013, dated 2015).
Structures can show the parent of a compound that is named as a salt. One block for each compound: values may come before it.

Columns and labels:
[1] = Pharmacokinetics of injectable ropinirole administered subcutaneously, steady state plasma levels; assay type: in vivo; details: minipigs, subcutaneous, ropinirole 15 mg/ml terminally sterilized (Table A)
site of infusion [2] = details: in vivo
[3] = Pharmacokinetics of injectable ropinirole administered subcutaneously, steady state plasma levels; assay type: in vivo; details: rats, subcutaneous, sterilized ropinirole HCl in sterile water for injection, no excipients
Source text: The rats were given sterilized ropinirole HCl in sterile water for injection, no excipients.

site of infusion [4] = assay: Toxicology, subcutaneous infusion site reaction; assay type: in vivo, rabbits and minipigs
Procedure: Toxicology was tested on rats, rabbits and minipigs. A sterilized injectable ropinirole composition at 15 mg/mL/day was administered to the rabbits and minipigs. Injection sites were administered 1 mL of infusate per day for 3 days and tissues collected immediately after cessation of delivery. […] A slight trend towards larger reactions with higher concentrations/doses of ropinirole relative to vehicle-treated sites was found but was concluded to be much less severe than apomorphine-induced inflammation at clinically relevant doses (FIGS. 12 and 13).

site of infusion [5] = assay: Histopathology score of site reactions in the subcutis at the cannula tip; details: apomorphine, microscopic

- two and three repeat administrations to the same site versus single 3-day administration (site of infusion [2]): did not differ significantly
SMILES: CCCN(CCC)CCc1cccc2c1CC(=O)N2 [ropinirole, 4-[2-(dipropylamino)ethyl]-1,3-dihydro-2H-indol2-one monohydrochloride]
- steady state plasma levels versus dose [1]: approximate linear relationship to the dose administered
- steady state plasma levels versus dose [3]: approximate linear relationship to the dose administered
- inflammation/necrosis at the site of infusion (site of infusion [4]; 15 mg/mL/day, 1 mL per day for 3 days): mild inflammation/necrosis
- gross detectability of reactions at the local sites of infusion (site of infusion [4]; seen only at cannula tip in the subcutis upon microscopic evaluation): not detectable grossly at the surface of the skin

SMILES: CN1CCc2cccc3c2[C@H]1Cc1ccc(O)c(O)c1-3 [apomorphine]
- inflammation score (site of infusion [5]): severe
- necrosis score (site of infusion [5]): moderate
- size of site reaction relative to 15 mg/mL/day ropinirole (site of infusion [4]; minipig, 10 mg/3 mL/day, 3 days infusion): approximately twice as large
